# Assay results from ChEMBL document CHEMBL4043216, “Design and synthesis of benzoacridines as estrogenic and anti-estrogenic agents” (Bioorg Med Chem, 2017).
# Where a name gives a salt, the structure may show the parent alone. Activity calls are given as the source filed them. No cut-off for these calls is given here.
# Assays:
# MCF7 = assay: cells; type: functional, cell-based; conditions: Homo sapiens, MCF7, 144 h
# Description: Inhibition of 17-beta estradiol-induced cell proliferation in human MCF7 cells incubated for 6 days by acid red-52 staining based assay
# Estrogen receptor [1] = biological target: T1, Estrogen receptor (Homo sapiens, UniProt P03372)
# T1 sequence (P03372 whole entry): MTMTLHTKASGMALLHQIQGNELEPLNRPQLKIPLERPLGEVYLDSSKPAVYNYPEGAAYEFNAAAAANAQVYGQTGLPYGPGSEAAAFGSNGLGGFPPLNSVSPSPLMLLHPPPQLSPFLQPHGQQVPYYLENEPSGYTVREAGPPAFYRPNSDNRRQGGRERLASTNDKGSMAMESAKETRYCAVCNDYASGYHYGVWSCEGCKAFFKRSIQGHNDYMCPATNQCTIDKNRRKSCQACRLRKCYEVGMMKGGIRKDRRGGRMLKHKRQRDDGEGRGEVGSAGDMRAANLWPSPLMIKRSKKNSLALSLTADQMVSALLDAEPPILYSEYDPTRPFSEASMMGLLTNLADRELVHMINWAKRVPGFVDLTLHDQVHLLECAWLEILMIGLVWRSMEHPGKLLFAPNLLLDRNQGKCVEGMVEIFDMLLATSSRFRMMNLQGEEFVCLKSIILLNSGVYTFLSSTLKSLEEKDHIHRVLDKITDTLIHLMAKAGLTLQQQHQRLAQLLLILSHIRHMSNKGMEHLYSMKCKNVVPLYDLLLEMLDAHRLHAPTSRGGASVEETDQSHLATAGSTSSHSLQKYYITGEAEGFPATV
# Description: Displacement of [3H]E2 from GST-fused ERalpha-LBD (unknown origin) expressed in Escherichia coli BL21 incubated for 1 hr by liquid scintillation counting method
# [2] = biological target: T2, Estrogen-related receptor gamma (Homo sapiens, UniProt P62508)
# T2 sequence (P62508 whole entry): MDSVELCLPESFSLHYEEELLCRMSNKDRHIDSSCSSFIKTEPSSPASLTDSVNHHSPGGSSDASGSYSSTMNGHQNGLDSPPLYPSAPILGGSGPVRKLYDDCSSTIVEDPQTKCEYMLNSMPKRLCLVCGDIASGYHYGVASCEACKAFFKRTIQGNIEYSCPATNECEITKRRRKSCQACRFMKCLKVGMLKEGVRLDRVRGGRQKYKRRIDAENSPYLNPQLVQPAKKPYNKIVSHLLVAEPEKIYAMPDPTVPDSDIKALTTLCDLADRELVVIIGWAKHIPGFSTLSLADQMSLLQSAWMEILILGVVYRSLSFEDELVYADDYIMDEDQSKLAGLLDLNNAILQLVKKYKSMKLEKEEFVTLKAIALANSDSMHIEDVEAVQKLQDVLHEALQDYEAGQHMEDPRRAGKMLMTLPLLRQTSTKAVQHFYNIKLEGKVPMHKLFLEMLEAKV
# Description: Binding affinity to human ERRgamma
# in vitro = conditions: human
# Description: Cytotoxicity in human MCF7 cells assessed as maximum drug level not causing reduction in cell viability incubated for 6 days by acid red-52 staining based assay
# Estrogen receptor beta [3] = biological target: T3, Estrogen receptor beta (Homo sapiens, UniProt Q92731)
# T3 sequence (Q92731 whole entry): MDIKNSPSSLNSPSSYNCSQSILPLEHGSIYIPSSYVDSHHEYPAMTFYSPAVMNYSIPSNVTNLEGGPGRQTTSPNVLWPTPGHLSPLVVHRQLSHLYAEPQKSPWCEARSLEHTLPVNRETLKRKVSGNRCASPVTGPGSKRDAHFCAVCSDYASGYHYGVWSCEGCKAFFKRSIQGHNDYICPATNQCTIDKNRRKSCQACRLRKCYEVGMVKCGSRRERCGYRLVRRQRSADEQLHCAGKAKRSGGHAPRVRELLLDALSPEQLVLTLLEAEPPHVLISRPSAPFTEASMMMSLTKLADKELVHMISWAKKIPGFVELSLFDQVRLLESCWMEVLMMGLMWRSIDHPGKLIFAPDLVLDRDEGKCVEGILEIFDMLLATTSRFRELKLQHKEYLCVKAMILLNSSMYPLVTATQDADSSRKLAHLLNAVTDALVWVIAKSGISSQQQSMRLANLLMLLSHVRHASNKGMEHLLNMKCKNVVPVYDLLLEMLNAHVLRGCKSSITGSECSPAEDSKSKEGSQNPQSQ
# Description: (§1) Displacement of [3H]E2 from GST-fused ERbeta-LBD (unknown origin) expressed in Escherichia coli BL21 incubated for 1 hr by liquid scintillation counting method
# Estrogen receptor beta [4] = biological target: T3, Estrogen receptor beta; assay: Antagonist activity at full length ERbeta (unknown origin) expressed in human HeLa cells assessed as reduction in 17-beta estradiol-induced response at 10^-5M incubated for 24 hrs by ERE-driven luciferase reporter gene assay relative to untreated control; type: cell-based
# Estrogen receptor beta [5] = biological target: T3, Estrogen receptor beta; assay: Antagonist activity at full length ERbeta (unknown origin) expressed in human HeLa cells incubated for 24 hrs by ERE-driven luciferase reporter gene assay
# [6] = biological target: T4, Estrogen receptor (Homo sapiens) (UniProt P03372); assay: Antagonist activity at full length ERalpha (unknown origin) expressed in human HeLa cells up to 10 uM incubated for 24 hrs by ERE-driven luciferase reporter gene assay; type: cell-based
# T4 sequence (whole entry): T1 sequence (P03372 whole entry)
# Estrogen receptor [7] = biological target: T1, Estrogen receptor; remark: listed apart in the source
# Description: Agonist activity at full length ERalpha (unknown origin) expressed in human HeLa cells incubated for 24 hrs by ERE-driven luciferase reporter gene assay
# Estrogen receptor beta [8] = biological target: T3, Estrogen receptor beta; remark: listed apart in the source
# Description: as §1
# Estrogen receptor [9] = biological target: T1, Estrogen receptor; remark: listed apart in the source
# Description: Antagonist activity at full length ERalpha (unknown origin) expressed in human HeLa cells incubated for 24 hrs by ERE-driven luciferase reporter gene assay
Compound,IC50 (MCF7) [nM],IC50 (Estrogen receptor [1]) [nM],IC50 [2],MNTC at 144 h (in vitro; MCF7 cells) [µM],IC50 (Estrogen receptor beta [3]) [nM],also measured
Cl.Clc1c2ccccc2cc2c(-c3ccccc3)c3ccccc3nc12,9070,1680,Not Active,> 10,2520,
COc1ccc2c(-c3ccc(C(F)(F)F)cc3)c3cc4cc(C(F)(F)F)ccc4cc3nc2c1,,,,> 10,,
COc1ccc2cc3nc4ccccc4c(-c4ccccc4)c3cc2c1,,,,> 10,,
COc1ccc2c(-c3ccccc3)c3cc4ccccc4cc3nc2c1,,,,> 1,,
COc1cccc2c(-c3ccccc3)c3cc4ccccc4cc3nc12,,,,> 10,,
FC(F)(F)c1ccc2nc3cc4ccccc4cc3c(-c3ccccc3)c2c1,,,,> 10,,
FC(F)(F)c1ccc(-c2c3ccc(C(F)(F)F)cc3nc3cc4ccc(C(F)(F)F)cc4cc23)cc1,,,,> 1,,
c1ccc(-c2c3ccccc3nc3nc4ccccc4cc23)cc1,951,,,,,
Cl.Oc1ccc2cc3nc4ccccc4c(-c4ccccc4)c3cc2c1,,169,Not Active,> 10,154,fold change (FC) (Estrogen receptor beta [4]): 6; inhibition (Estrogen receptor beta [5]): Active; inhibition [6]: inactive; EC50 (Estrogen receptor [7]): 1440 nM
N#Cc1c2ccccc2cc2c(-c3ccccc3)c3ccccc3nc12,,,,> 100,,
Cl.FC(F)(F)c1cccc2c(-c3ccccc3)c3cc4ccccc4cc3nc12,3980,2650,Not Active,> 10,,IC50 (Estrogen receptor beta [8]): Not Active
Cl.Oc1ccc2c(-c3ccccc3)c3cc4ccccc4cc3nc2c1,,294,Not Active,> 1,306,inhibition (Estrogen receptor beta [5]): Active; inhibition [6]: inactive; EC50 (Estrogen receptor [7]): 7400 nM
c1ccc(-c2c3ccccc3nc3ccccc23)cc1,,,,> 100,,
c1ccc2nc3ccccc3cc2c1,,,,> 10,,
Cl.Clc1ccc2c(-c3ccccc3)c3cc4ccccc4cc3nc2c1,19600,1650,Not Active,> 100,1980,
CC/C(=C(\c1ccccc1)c1ccc(OCCN(C)C)cc1)c1ccccc1 [TAMOXIFEN CITRATE],,,,,,MNTC at 144 h (in vitro; mcf7): > 10 µM
Cl.c1ccc(-c2c3ccccc3nc3cc4ccccc4cc23)cc1,4950,915,Not Active,> 10,1690,IC50 (Estrogen receptor [9]): 9390 nM
Cl.Oc1cccc2c(-c3ccccc3)c3cc4ccccc4cc3nc12,,1080,Not Active,> 10,939,inhibition [6]: inactive; EC50 (Estrogen receptor [7]): 1330 nM
Cl.FC(F)(F)c1ccc2cc3nc4ccccc4c(-c4ccccc4)c3cc2c1,9240,3510,Not Active,> 10,,IC50 (Estrogen receptor beta [8]): Not Active; IC50 (Estrogen receptor [9]): 5340 nM
FC(F)(F)c1ccc(-c2c3ccccc3nc3cc4ccc(C(F)(F)F)cc4cc23)cc1,9240,,,> 10,,
